Results: article PMC4411097, “Pachymic Acid Inhibits Growth and Induces Apoptosis of Pancreatic Cancer In Vitro and In Vivo by Targeting ER Stress” (PLoS ONE, 2015)

Experiment: Toxicology studies in vivo
Parameters: species or system female nude mice
Conditions: for ALP: mean ± SD (n = 10–13), control 60 ± 19; for Albumin: control 1.5 ± 0.2; for AST: control 625 ± 367
Procedure: Toxicity of PA was evaluated in the 6 weeks old female nude mice (Harlan, Indianapolis, IN). The mice were acclimatized for 1 week and treated with PA (0, 25 or 50 mg kg^-1 of body weight, n = 15 per group) by i.p. 3 times per week for additional 5 weeks. The body weight was evaluated 3 times per week. At the end of the experiment, animals were euthanized by CO2 inhalation. Blood was collected and a gross pathology examination performed. Liver, spleen, kidney, lung and heart were harvested, fixed in 10% neutral-buffered formalin at 4°C for 24 h followed tissue processing overnight and then embedded in paraffin. Five-micrometer sections were stained with H&E. The levels of alkaline phosphatase (ALP), alanine aminotransferase (ALT), aspartate aminotransferase (AST), albumin and total protein were determined at the IU Health Pathology Laboratory (Indianapolis, IN).

## C=C(CC[C@@H](C(=O)O)[C@H]1[C@H](O)C[C@@]2(C)C3=C(CC[C@]12C)[C@@]1(C)CC[C@H](OC(C)=O)C(C)(C)[C@@H]1CC3)C(C)C [PA, Pachymic acid]
25 mg kg^-1
  Liver enzyme profiles (ALP, ALT, AST, albumin, total protein): not markedly altered
  Organ pathology by H&E (liver, kidney, spleen, lung, heart): did not demonstrate any abnormalities
25 mg kg^-1, serum
  ALP: 62 ± 9 IU L^-1
25 mg kg^-1, serum, mean ± SD
  Albumin: 1.6 ± 0.1 g/dL
  AST: 531 ± 296 IU L^-1
25 mg kg^-1, serum, mean ± SD, control 4.1 ± 0.5
  T Protein: 4.5 ± 0.2 g/dL
25 mg kg^-1, serum, mean ± SD, control 123 ± 88
  ALT: 194 ± 193 IU L^-1
50 mg kg^-1
  Clinical signs: several signs of discomfort and impaired movement
  Organ pathology by H&E (liver, kidney, spleen, lung, heart): obvious pathological changes in liver, kidney and spleen tissues
50 mg kg^-1, serum
  ALP: 59 ± 11 IU L^-1
50 mg kg^-1, serum, mean ± SD
  Albumin: 1.6 ± 0.1 g/dL
  AST: 1431 ± 997 IU L^-1
25 and 50 mg kg^-1 i.p. 3 times per week, 5 weeks
  Body weight, treatment groups vs control: no significant differences
